Source: patent US20240025871A1, “METHODS AND SYSTEMS FOR PRODUCTION OF FURFURAL” (SHELL OIL COMPANY, priority 2020, published 2024)
“And” between values parts separate entries of the source, which are not always exact repeats. Identical values can stand only once. Like-named read-outs stand apart in the source and are kept apart here.

Tests used:
[1] = Partition of components between water+sulfolane phase and methylnaphthalene phase after dehydration reaction; format: physicochemical; conditions: room temperature; for [Conc]water+S: concentration in aqueous (water+sulfolane) phase; for [conc]MN: concentration in methylnaphthalene phase; for wt. %water+S: content in aqueous (water+sulfolane) phase; for wt. %MN: content in methylnaphthalene phase; for Pmol: ratio of absolute amounts polar/apolar phase, polar phase volume twice the apolar
[2] = octanol-water; water-soluble solvents, Table 3; cited from earlier work
[3] = cited from earlier work
[4] = water-insoluble solvents, Table 2
[5] = water-insoluble boronic acids, Table 1

## OB(O)c1ccccc1 [phenylboronic acid]
[1]
  [Conc]water+S: 125 mM
  [conc]MN: 340 mM
  wt. %MN: 3.7 wt. %
  Pmol: 0.74
[1]; listed as PBA
  wt. %water+S: < 1.3 wt. % and 1.3 wt. %

## O=S1(=O)CCCC1 [sulfolane]
[1]
  [Conc]water+S: 5,100 mM
  [conc]MN: 370 mM
  wt. %water+S: 54 wt. %
  wt. %MN: 4 wt. %
  Pmol: 13.8
[1]; listed as Sulfolane
  wt. %MN: 4.0 wt. %

## COCCOCCOC [Diglyme]
[2]
  LogP: −0.8

## Cc1cccc2ccccc12 [1-methylnaphtalene]
[1]
  [Conc]water+S: 3 mM
  [conc]MN: 7,000 mM
  wt. %MN: 91 wt. %
  Pmol: 0.0009
[1]; listed as 1-MN
  wt. %water+S: 0.04 wt. %
[1]; listed as MN
  wt. %water+S: < 0.1 wt. %
[3]; [4]
  Water solubility g/L (20° C.): 0.026 g/L

## CN1CCCC1=O [nMe-pyrrolidone]
[2]
  LogP: −0.4

## O=Cc1ccco1 [Furfural]
[1]
  [Conc]water+S: 103 mM
  [conc]MN: 144 mM
  wt. %water+S: 0.88 wt. %
  wt. %MN: 1.3 wt. %
  Pmol: 1.43
  share of overall furfural produced contained in non-aqueous MN-rich phase: 41%
[1]; listed as furfural
  wt. %water+S: < 1 wt. %

## c1ccc2occc2c1 [Benzofuran]
[3]; [4]
  Water solubility g/L (20° C.): insoluble

## CCc1ccc(O)cc1 [4Et-phenol]
[3]; [4]
  Water solubility g/L (20° C.): 6.1 g/L

## CCCCCCCCB(O)O [octylboronic acid]
[3]; [5]
  Water solubility g/L (20° C.): Insoluble
[3]
  water solubility (in words): water-insoluble

## CC1CCC(=O)O1 (centres unmarked) [gamma valerolactone]
[2]
  LogP: −0.27

## CCCCc1ccc(B(O)O)cc1 [4-butylphenyl boronic acid]
[3]; [5]
  Water solubility g/L (20° C.): Insoluble

## Cc1ccccc1B(O)O [o-tolylboronic acid]
[3]; [5]
  Water solubility g/L (20° C.): Slightly

## CC(C)(C)c1ccc(B(O)O)cc1 [4-tert-Butylphenyl boronic acid]
[3]; [5]
  Water solubility g/L (20° C.): Insoluble

## O [water]
[1]
  [Conc]water+S: 27,600 mM
  [conc]MN: 92 mM
  wt. %water+S: 44 wt. %
  wt. %MN: 0.15 wt. %
  Pmol: 601

## O=C1CCCO1 [gamma butyrolactone]
[2]
  LogP: −0.76
